Measured values from PMC10613275 (Scientific Reports, 2023).
Entries after “also recorded” stand apart in the source; their conditions may differ.

Key:
HeLa cells = experiment: γH2AX biomarker-based genotoxicity assay, HeLa; assay type: cell-based, human; conditions: for MoA (mean fluorescence values over area of the nuclei): PC 30 μM
Method: Briefly, HeLa and CHO-K1 cells were seeded at a concentration of 1 × 10^5 cells/ml into the 96-well plates. CHO-K1 cells were used for comparison with HPRT test. HeLa cells were recommended by the manufacturer of the kit. After 24 h, cells were rinsed with PBS and cultivation medium (“Cell lines” Section) without ATB, with a reduced content of FBS (5%) was added. 30 µM valinomycin (in DMSO) was used as a positive control Samples were applied in the presence of non-toxic sample concentrations, i.e. 100 µM either with or without S9 mix. […] Cells were photographed using a fluorescence microscope (Olympus IX83); filters: DAPI (500 ms) and Cy3 (500 ms). Bioimage analysis in ImageJ software was performed as described previously.

RPTEC/TERT1 cells = experiment: Nephrotoxicity, RT-qPCR of kidney damage biomarkers; assay type: cell-based, human; conditions: up to 100 µM
Method: RPTEC/TERT1 cells were seeded at a concentration of 2 × 10^5 cells/ml in ProxUp2 medium into 60 mm Petri dishes. After 24 h, the cells were washed with PBS and […] metabolites (100 μM) were applied in fresh ProxUp2 medium. The cells were incubated with samples for 48 h, after which the cells were washed with PBS and dishes were frozen in - 160 °C. The RNA was isolated using RNeasy Plus Mini Kit (Qiagen, Hilden, Germany). The RNA concentration and purity was determined with NanoDrop One (ThermoFisher Scientific) spectrophotometr. The cDNA synthesis was performed from 0.1 μg of total RNA with an iScript Reverse Transcription Supermix (Bio-Rad, Hercules, California, USA). Quantitative real-time PCR (qPCR) was performed using the qPCR Bio-Rad C100 Touch System (Bio-Rad) with a 96-well block. The reaction mixture consisted of 1 μl of specific 20 × PrimePCR Assay (Bio-Rad), 10 μl of 2 × SsoAdvance Universal Supermix (Bio-Rad), 2 μl of cDNA sample, 7 μl of nuclease-free water. The final reaction volume was 20 μl. […] Cycling parameters were: initial denaturation at 95 °C for 2 min, followed by 40 cycles of 95 °C for 5 s and 60 °C for 30 s. Fluorescence values were acquired after each extension phase. Samples were analyzed in triplicate, and samples with a standard deviation of duplicates > 0.2 Ct were re-analyzed. A non-template control containing nuclease-free water instead of cDNA as well as non-RT control containing purified RNA without reverse transcription was used. The real-time PCR study followed the MIQE guidelines. Relative transcript levels of the estimated genes in the cell lines were compared using the software CFX Maestro Software 2.3 (Bio-Rad).

CHO-K1 cells (hprt gene) = experiment: CHO/HPRT mutation assay; assay type: cell-based, Chinese hamster; conditions: lilial 500 µM, 3MC 2 µg/ml
HaCaT cells = conditions: 10 µM ref 2; cited from earlier work
Caco-2 cells = conditions: Caco-2, 100 µM ref 2; cited from earlier work
[1] = set-up: method as in PMID 24239523; conditions: concentrations up to 500 μM ref 5; cited from earlier work
[2] = test system: MCF-7 human breast cancer cells; conditions: cited from earlier work
rats = test system: rats; set-up: method as in PMID 32461162; conditions: parental rats F0 and F1 in vivo ref 3; cited from earlier work
[3] = test system: NRF2 protein in THP-1 cells; conditions: 650 µM, 5 h ref 15; cited from earlier work
[4] = set-up: method as in earlier work; conditions: guinea pigs, 1% p-BMHCA in ethanol, 120 µg substance/cm^2, 16 h ref 4; cited from earlier work
mouse lymphoma cells = test system: mouse lymphoma cells; set-up: method as in earlier work; conditions: cited from earlier work
[5] = test system: S. typhimurium and E. coli, CHO and Chinese hamster V79 cells; conditions: cited from earlier work
[6] = test system: fertilized eggs of white turkey (Meleagris gallopavo); conditions: 10 mg/egg ref 6; cited from earlier work

SMILES: CC(C=O)Cc1ccc(C(C)(C)C)cc1 (stereo not shown) [Lilial, 3-(4-(tert-butyl)phenyl)-2-methylpropanal]
- Genotoxicity result (HeLa cells; 100 µM): Non genotoxic
- MoA (mean fluorescence values over area of the nuclei) (HeLa cells; 4h_S9, lilial 100 µM): 0.20
- MoA (mean fluorescence values over area of the nuclei) (HeLa cells; 4 h, without S9, lilial 100 µM): 0.11
- MoA (mean fluorescence values over area of the nuclei) (HeLa cells; 24 h, lilial 100 µM): 0.03
- Nephrotoxicity result (RPTEC/TERT1 cells): Non nephrotoxic
- Nephrotoxicity result (RPTEC/TERT1 cells; listed as lilial): not toxic; also recorded: neither lilial, nor its metabolites, demonstrated nephrotoxic activity
- MF (/106) mutation frequency (CHO-K1 cells (hprt gene); Table 4, With S9): 6 ± 5 /106
- NMC (number of mutant colonies) (CHO-K1 cells (hprt gene); Table 4, Without S9): 0
- Decrease in cell viability (HaCaT cells): 65%
- Decrease in cell viability (Caco-2 cells): 23%
- Genotoxicity at the chromosomal level (clastogenicity or aneuploidy) or single-strand breaks [1]: did not induce genotoxicity
- Estrogenic activity (expression of transfected reporter and endogenous pS2 gene) ([2]; MCF7 in vitro ref 8): very weak estrogenic activity
- Cell doublings ([2]; lilial 100 µM, estrogen 10 nM, unaffected control 1.8 doublings ref 8): 2.4 doublings
- Effects on fertility and reproductive performance (rats): no adverse effects
- Level of NRF2 protein [3]: significant increase
- In vitro dermal absorption [4]: 25.7%
- Mouse lymphoma assay outcome (mouse lymphoma cells): negative outcome
- Genotoxic and mutagenic potential [5]: No genotoxic and mutagenic potential
- DNA strand breaks in the comet assay [6]: 2.0 fold
